The values that follow come from article PMC6658782, “The Novel Arylamidine T-2307 Selectively Disrupts Yeast Mitochondrial Function by Inhibiting Respiratory Chain Complexes” (Antimicrobial Agents and Chemotherapy, 2019).

The target in test [1] is respiratory chain complex II (Saccharomyces cerevisiae, UniProt P21801+P33421+P37298+Q00711). Nature of the test: Respiratory chain enzymatic activity, complex II, S. cerevisiae. Type of test: biochemical.
Test [2] has as its target respiratory chain complex II + III (Saccharomyces cerevisiae, UniProt P00163+P07143+P08067). Nature of the test: Respiratory chain enzymatic activity, complexes II plus III, S. cerevisiae. Type of test: biochemical.
For test [3], the target named is T1, respiratory chain complex II + III (Candida albicans, UniProt A0A1D8PHA3+A0A1D8PJX3+P0C8L0).
T1 sequence (P0C8L0 1-387): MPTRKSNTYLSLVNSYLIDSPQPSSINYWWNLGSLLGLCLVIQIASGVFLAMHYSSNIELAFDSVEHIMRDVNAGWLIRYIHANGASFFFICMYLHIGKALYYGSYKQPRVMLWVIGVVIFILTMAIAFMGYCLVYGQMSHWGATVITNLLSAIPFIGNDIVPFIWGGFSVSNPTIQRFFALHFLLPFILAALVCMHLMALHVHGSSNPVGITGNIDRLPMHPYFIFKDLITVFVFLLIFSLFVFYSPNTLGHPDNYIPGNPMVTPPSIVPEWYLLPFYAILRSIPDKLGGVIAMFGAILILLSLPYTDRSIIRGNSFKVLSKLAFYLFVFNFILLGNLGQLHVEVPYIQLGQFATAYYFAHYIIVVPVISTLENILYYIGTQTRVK
T1 sequence (A0A1D8PHA3 43-288): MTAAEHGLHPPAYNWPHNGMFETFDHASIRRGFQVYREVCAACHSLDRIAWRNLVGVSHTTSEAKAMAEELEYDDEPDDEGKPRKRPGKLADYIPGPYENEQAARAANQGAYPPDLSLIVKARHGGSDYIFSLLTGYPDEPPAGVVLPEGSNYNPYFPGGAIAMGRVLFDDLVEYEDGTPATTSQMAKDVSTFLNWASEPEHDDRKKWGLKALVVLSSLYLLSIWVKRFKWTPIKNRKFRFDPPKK
T1 sequence (A0A1D8PJX3 30-213): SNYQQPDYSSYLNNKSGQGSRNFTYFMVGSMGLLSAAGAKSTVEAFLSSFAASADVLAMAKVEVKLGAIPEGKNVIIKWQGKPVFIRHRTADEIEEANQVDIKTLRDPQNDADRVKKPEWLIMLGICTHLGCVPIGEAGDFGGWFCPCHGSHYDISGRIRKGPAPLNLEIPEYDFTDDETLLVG
Nature of the test: Respiratory chain enzymatic activity, complexes II plus III, C. albicans. The note with it: C. albicans mitochondria; read-out: IC50 ± SD, Complex II + III. Type of test: biochemical.

Test [4] has as its target respiratory chain complex II + III (Bos taurus, UniProt P00125+P00157+P13272). Nature of the test: MitoCheck complex II/III activity assay, bovine heart mitochondria. The test is classed as biochemical.
The target of test [5] is respiratory chain complex IV (Bos taurus, UniProt P00396+P00415+P68530). Nature of the test: MitoCheck complex IV activity assay, bovine heart mitochondria. Type of test: biochemical.
A further test deals with Saccharomyces cerevisiae. Nature of the test: Intracellular ATP levels in yeast (luminescence assay). The test is classed as cell-based. On the procedure: Intracellular ATP levels were measured using a previously described method with the following modifications ([25]). S. cerevisiae was grown overnight in a semisynthetic medium (per liter: 20 g of lactate, 0.5 g of glucose, 3 g of yeast extract, 1 g of KH2PO4, 1 g of NH4Cl, 0.5 g of CaCl2·2H2O, 0.5 g of NaCl, and 0.6 g of MgCl2·6H2O; adjusted to pH 5.5 with NaOH). The cells were harvested during the logarithmic-growth phase by centrifugation (3,000 × g at room temperature for 5 min). They were then washed and resuspended in distilled water. The suspension was diluted in a semisynthetic medium to yield 1 × 10^6 cells/ml. After 5 min of incubation at 30°C, T-2307 and antimycin A were added to the suspension. Further, the cells were incubated for 8 h at 30°C. Subsequently, the cells were collected by centrifugation (4,200 × g at 4°C for 5 min). After washes performed with phosphate-buffered saline (PBS; pH 7.2), the cells were resuspended in PBS and diluted to yield 1 × 10^6 cells/ml. ATP levels were measured using the BacTiter-Glo microbial cell viability assay (Promega, Madison, WI, USA), following the manufacturer’s instructions. Luminescence was measured using a microplate reader POLARstar Optima (BMG Labtech GmbH). To determine the viable cell counts, the cell suspension was diluted with PBS and spread on YPD agar. After a 2-day incubation at 30°C, colonies were counted. The intracellular ATP level is expressed as relative light units (RLU)/CFU.

A further test deals with C. albicans cells. The note with it: cited from earlier work.

Sequence of respiratory chain complex II (P21801 21-266): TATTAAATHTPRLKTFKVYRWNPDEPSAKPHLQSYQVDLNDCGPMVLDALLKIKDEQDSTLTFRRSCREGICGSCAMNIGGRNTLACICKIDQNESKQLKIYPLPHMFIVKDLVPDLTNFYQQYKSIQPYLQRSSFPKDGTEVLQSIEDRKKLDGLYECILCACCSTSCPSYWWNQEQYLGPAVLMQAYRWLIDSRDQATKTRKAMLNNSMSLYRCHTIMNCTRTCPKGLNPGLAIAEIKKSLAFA
Sequence of respiratory chain complex II (P33421 51-198): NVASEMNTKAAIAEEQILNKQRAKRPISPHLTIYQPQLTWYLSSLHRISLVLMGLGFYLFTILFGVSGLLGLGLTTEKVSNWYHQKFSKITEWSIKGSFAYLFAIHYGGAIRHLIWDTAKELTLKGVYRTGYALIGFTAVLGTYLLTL
Sequence of respiratory chain complex II (P37298 32-181): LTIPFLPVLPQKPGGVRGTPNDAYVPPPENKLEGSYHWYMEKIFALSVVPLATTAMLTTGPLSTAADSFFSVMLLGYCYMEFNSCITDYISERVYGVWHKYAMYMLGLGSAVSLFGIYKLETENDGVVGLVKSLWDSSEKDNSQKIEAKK
Sequence of respiratory chain complex II (Q00711 29-640): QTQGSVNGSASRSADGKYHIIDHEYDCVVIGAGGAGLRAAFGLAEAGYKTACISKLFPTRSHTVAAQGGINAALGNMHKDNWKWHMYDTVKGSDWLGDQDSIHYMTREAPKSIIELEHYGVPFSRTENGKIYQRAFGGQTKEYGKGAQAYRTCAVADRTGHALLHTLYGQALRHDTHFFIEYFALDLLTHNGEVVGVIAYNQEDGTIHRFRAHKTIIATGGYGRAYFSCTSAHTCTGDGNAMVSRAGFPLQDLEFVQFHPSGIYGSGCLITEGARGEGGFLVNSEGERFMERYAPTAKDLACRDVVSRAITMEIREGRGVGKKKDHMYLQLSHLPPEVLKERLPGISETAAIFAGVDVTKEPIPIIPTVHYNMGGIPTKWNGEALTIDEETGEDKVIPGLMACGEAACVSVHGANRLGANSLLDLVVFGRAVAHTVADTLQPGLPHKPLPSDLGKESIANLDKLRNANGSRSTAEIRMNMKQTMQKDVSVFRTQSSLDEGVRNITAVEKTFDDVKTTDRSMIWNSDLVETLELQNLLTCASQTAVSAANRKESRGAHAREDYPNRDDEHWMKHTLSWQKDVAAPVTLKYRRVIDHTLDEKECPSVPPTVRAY

With `N=C(N)c1ccc(OCCCC2CCN(CCCOc3ccc(C(=N)N)cc3)CC2)cc1` [T-2307], the IC50 in test [1] was 755 ± 73 µM; in test [2], 271 ± 37 µM; in test [3], 220 ± 55 µM; in test [4] (bovine heart mitochondria, read-out: IC50 ± SD, Complex II + III) it was more than 3000 µM; in test [5] (bovine heart mitochondria, read-out: IC50 ± SD, Complex IV), more than 3000 µM. Moreover, the “IC50 for complexes II plus III in bovine heart mitochondria relative to yeast mitochondria” value in test [4] is more than 10 fold. In addition, the remaining activity at 3000 µM was 93% in test [4] (read-out: remaining enzymatic activity of complexes II plus III) and 92% in test [5] (read-out: remaining enzymatic activity of complex IV). In addition, the “IC50 for complex IV in bovine heart mitochondria relative to yeast mitochondria” value in test [5] is on record as more than 10 fold. In addition, the “concentration that significantly decreased intracellular ATP levels” value in the test on Saccharomyces cerevisiae is not below 0.01 µM. In addition, the “reduction in intracellular ATP level” value with Saccharomyces cerevisiae is reported as approximately 80%. In addition, the “reduction in intracellular ATP levels” value with Saccharomyces cerevisiae is given as more than 50%. In the test on C. albicans cells, the “concentration in cells relative to extracellular medium” value was > 3,000 fold.
